Calls of active or inactive are those of the source.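 How the source made its calls: active means fitted curve falls past a set limit of signal loss at no more than twice the top dose; inconclusive means flat fit between 30 and 70% signal loss, or poor fit; inactive means signal rise, flat within 30%, or crossing too high.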
Experiment: ATP-based viability loss in HEK293T cells – cell-based, CellTiter-Glo luminescence, cherry-pick, set 3, cytotoxicity control, dose response (AID 720588)
Settings: HEK293T viability, CellTiter-Glo ATP luminescence, 72 h; at 8 µM (top of the series)
In the case of `C[C@H](CO)N1C[C@H](C)[C@H](CN(C)Cc2ccc(C(F)(F)F)cc2)Oc2ccc(NC(=O)CCCCCC(=O)Nc3ccccc3N)cc2CC1=O`, the activity change, negative = cytotoxicity is reported as 50% (inactive).

Same assay, conditions: HEK293T viability, CellTiter-Glo ATP luminescence, 72 h; at 23.5 µM (top of the series)
For `COC(=O)C[C@@H]1CC[C@@H]2[C@H](COc3ccc(NC(=O)c4cccc(Cl)c4)cc3C(=O)N2C)O1`, the activity change, negative = cytotoxicity was -19.6% (inactive). In the case of `C[C@@H]1CN([C@@H](C)CO)C(=O)c2cccc(NC(=O)Nc3cccc4ccccc34)c2O[C@@H]1CN(C)Cc1ccc(C(=O)Nc2ccccc2N)cc1`, the activity change, negative = cytotoxicity is reported as -11.5% (inactive). In the case of `COC(=O)C[C@@H]1CC[C@H]2[C@H](COc3ccc(NC(=O)Nc4ccc(C#N)cc4)cc3C(=O)N2C)O1`, the activity change, negative = cytotoxicity is reported as 17.6% (inactive). With `N#C[C@H]1N[C@H](CO)[C@H]1c1ccc(C#Cc2ccccc2F)cc1` the activity change, negative = cytotoxicity was -11.8% (inactive).

Same assay, conditions: HEK293T viability, CellTiter-Glo ATP luminescence, 72 h; at 26 µM (top of the series)
In the case of `CCOc1cc2[nH]c(=S)n(Cc3ccc(C(=O)N4CCN(C)CC4)cc3)c(=O)c2cc1OCC`, the activity change, negative = cytotoxicity is reported as -20.5% (inactive). In the case of `O=C(NC(c1ccc(F)cc1)c1ccc2ccccc2n1)C1CCN(Cc2cccc(C(F)(F)F)c2)CC1` (stereo not drawn), the activity change, negative = cytotoxicity is reported as -38.4% (inactive). With `Cc1cc(C(=O)CN2C(=O)c3ccccc3S2(=O)=O)c(C)n1C(C)C` the activity change, negative = cytotoxicity was 15.7% (inactive). With `N#CC1=C(N)Oc2cc(N)ccc2C1c1cccc(Br)c1` (stereo not drawn) the activity change, negative = cytotoxicity was -22.2% (inactive). With `COC(=O)C[C@@H]1CC[C@@H]2[C@H](COc3ccc(NC(=O)Nc4ccc(C#N)cc4)cc3C(=O)N2C)O1` the activity change, negative = cytotoxicity was 46.8% (inactive). For `CCOc1ccc(N=C2C(=O)Nc3ccc(C)c(Br)c32)cc1`, the activity change, negative = cytotoxicity was -10.6% (inactive). With `COc1ccc(C2=Nn3c(nnc3-c3ccccc3OC)SC2)cc1OCC1CC1` the activity change, negative = cytotoxicity was -31.8% (inactive). With `O=c1[nH]c(=O)n([C@H]2C[C@H](O)[C@@H](CO)O2)cc1C(F)(F)F` the activity change, negative = cytotoxicity was -10.4% (inactive). For `CN1C(=O)c2cc(NC(=O)c3ccc(Cl)cc3)ccc2OC[C@@H]2O[C@@H](CC(=O)NCc3cccc(F)c3)CC[C@H]21`, the activity change, negative = cytotoxicity was -5.64% (inactive). In the case of `Cc1ccsc1/C=N/Nc1cccc(C(=O)O)c1`, the activity change, negative = cytotoxicity is reported as -23% (inactive). In the case of `COC(=O)C[C@H]1CC[C@H]2[C@H](COc3ccc(NC(=O)Nc4cccc(Cl)c4)cc3C(=O)N2C)O1`, the activity change, negative = cytotoxicity is reported as -28.3% (inactive). For `COc1ccccc1/C=C1\SC(=S)N(CCC(=O)Nc2cc(C)on2)C1=O`, the activity change, negative = cytotoxicity was 8.14% (inactive). With `Cc1ccc(C(CC(=O)O)Nc2nc(N3CCOCC3)nc(N3CCOCC3)n2)cc1` (stereo not drawn) the activity change, negative = cytotoxicity was 25.6% (inactive). For `CC(C)(C)c1ccc(Oc2ccc(N)cn2)cc1`, the activity change, negative = cytotoxicity was -15.7% (inactive). With `Cc1nn(-c2ccc(F)cc2)c2nc(N)c(C#N)c(-c3ccc(O)c(O)c3)c12` the activity change, negative = cytotoxicity was -12.7% (inactive). In the case of `C[C@H]1CN([C@@H](C)CO)C(=O)c2cccc(NC(=O)c3ccc(-c4nccs4)cc3)c2O[C@@H]1CN(C)Cc1ccc(C(=O)Nc2ccccc2N)cc1`, the activity change, negative = cytotoxicity is reported as 28.9% (inactive). With `COC(=O)C[C@@H]1CC[C@@H]2[C@H](COc3ccc(NC(=O)c4cc(F)cc(F)c4)cc3C(=O)N2C)O1` the activity change, negative = cytotoxicity was -1.07% (inactive). For `COc1cc(OC)cc(-c2cc3nc(C)c(CCC(=O)NCc4ccccc4)c(C)n3n2)c1`, the activity change, negative = cytotoxicity was -4.7% (inactive). For `C(=N\Nc1ccc2ccccc2n1)/c1ccc2c(c1)OCO2`, the activity change, negative = cytotoxicity was -17.5% (inactive). For `COc1ccc(/C=C2/SC(=S)N(CCCC(=O)Nc3ccccc3C(=O)O)C2=O)cc1`, the activity change, negative = cytotoxicity was -21% (inactive). For `C[C@@H]1CN([C@@H](C)CO)C(=O)c2cccc(NC(=O)Nc3ccccc3)c2O[C@@H]1CN(C)Cc1ccc(-c2ccccc2)cc1`, the activity change, negative = cytotoxicity was -22.7% (inactive). With `C[C@@H]1CN([C@@H](C)CO)C(=O)c2cccc(NS(=O)(=O)c3ccc(F)cc3)c2O[C@@H]1CN(C)Cc1ccc(C(=O)Nc2ccccc2N)cc1` the activity change, negative = cytotoxicity was -33.3% (inactive). For `O=C(Nc1ccc(NC(=O)c2cc3ccccc3o2)cc1)c1ccc2c(c1)OCCO2`, the activity change, negative = cytotoxicity was 7.63% (inactive). For `CCNC(=O)c1cccc(S(=O)(=O)N2CCCCCC2)c1`, the activity change, negative = cytotoxicity was -6.96% (inactive). With `COCc1cc(C)nc2sc(C(=O)NCCO)c(-n3cccc3)c12` the activity change, negative = cytotoxicity was 12.7% (inactive). With `Cc1c(CC(=O)NCCCC(=O)O)c(=O)oc2cc3c(cc12)CCC(C)(C)O3` the activity change, negative = cytotoxicity was -63.2% (inactive). In the case of `Cc1ccc(Cl)cc1NC(=O)Cn1cc(C(F)(F)F)cc(Cl)c1=O`, the activity change, negative = cytotoxicity is reported as 0.88% (inactive). In the case of `Cc1ccc(N2C(=O)c3cccc4c(N)ccc(c34)C2=O)c2cccnc12`, the activity change, negative = cytotoxicity is reported as -19.1% (inactive). For `CCc1ccc(/C=C2\SC(=S)N(CCC(=O)Nc3cc(C)on3)C2=O)cc1`, the activity change, negative = cytotoxicity was 5.29% (inactive). For `COc1cc2c(cc1NC(=O)CN(C)Cc1ccc(OC)c(OC)c1)oc1ccccc12`, the activity change, negative = cytotoxicity was -19.9% (inactive). In the case of `CN(C)C(=S)N=Nc1[nH]c2ccccc2c1O`, the activity change, negative = cytotoxicity is reported as 7.38% (inactive). In the case of `Cc1ccc(Cc2c(-c3ccco3)nc3c(C)cc(Br)cn23)cc1`, the activity change, negative = cytotoxicity is reported as 15.5% (inactive). In the case of `O=C(C1CC1)N1C[C@@H]2N[C@H](C1)C2c1ccc(/C=C/c2ccccc2)cc1` (stereo partly drawn), the activity change, negative = cytotoxicity is reported as -31.7% (inactive). With `CCS(=O)(=O)N1Cc2ccccc2CC1C(=O)Nc1nnc(SCc2ccc(C#N)cc2)s1` (stereo not drawn) the activity change, negative = cytotoxicity was -8.94% (inactive). For `O=C(O)c1ccc(N/N=C/c2cc(Br)cs2)cc1`, the activity change, negative = cytotoxicity was -9.61% (inactive). In the case of `Cc1cccc(NC(=O)CN2CCN(C(=O)CNC(=O)c3ccc(-c4ccccc4)cc3)CC2)c1C`, the activity change, negative = cytotoxicity is reported as -18.2% (inactive). In the case of `COC(=O)C[C@@H]1CC[C@@H]2[C@H](COc3ccc(NC(=O)c4cc(C)on4)cc3C(=O)N2C)O1`, the activity change, negative = cytotoxicity is reported as -12.8% (inactive). For `S=C(NCCN1CCOCC1)Nc1ccccc1Cl`, the activity change, negative = cytotoxicity was -17.7% (inactive). For `CC1=NC(=O)C(N=Nc2cccc(C(=O)O)c2)N1c1ccccc1` (stereo not drawn), the activity change, negative = cytotoxicity was -10% (inactive). For `COc1ccc(/C=C2/NC(=O)N(CC(=O)Nc3cccc(C)c3)C2=O)cc1O`, the activity change, negative = cytotoxicity was -15.3% (inactive). For `C[C@@H]1CN([C@H](C)CO)S(=O)(=O)c2ccc(C#CC3CC3)cc2O[C@@H]1CN(C)Cc1ccccc1F`, the activity change, negative = cytotoxicity was -30.1% (inactive). With `CC(=O)c1ccc(N(C(=O)Cn2nnc3ccccc32)C(C(=O)NCc2ccccc2)c2ccccn2)cc1` (stereo not drawn) the activity change, negative = cytotoxicity was -21.8% (inactive). With `Cc1ccc2oc(/N=C(\N)NC(=O)C(C)(C)C)nc2c1` the activity change, negative = cytotoxicity was -11% (inactive). For `COc1ccc(-c2nc3c(s2)CCc2onc(-c4ccc(OC)cc4)c2-3)cc1`, the activity change, negative = cytotoxicity was -17.8% (inactive). In the case of `O=C(Nc1cccc(Oc2ccc3c(c2)C(=O)NC3=O)c1)c1cccs1`, the activity change, negative = cytotoxicity is reported as -22.5% (inactive). For `COc1ccc(C/C(N)=N/OC(C)=O)cc1OC`, the activity change, negative = cytotoxicity was -1.12% (inactive). In the case of `COc1ccc(NC(=O)N2CCCCN3[C@H](CO)[C@H](c4ccc(C#CCC(C)C)cc4)[C@H]3C2)cc1`, the activity change, negative = cytotoxicity is reported as -56.2% (inactive). In the case of `CCCCNC(=O)C(c1ccc(OCC(=O)OC)c(C(=O)OC)c1)N(CCOC)C(=O)CCCCCN1C(=O)NC(c2ccc(-c3ccccc3)cc2)C(C(=O)OCc2ccccc2)=C1C` (stereo not drawn), the activity change, negative = cytotoxicity is reported as 2.6% (inactive). With `O=C(CN1C(=O)C(=O)c2ccccc21)c1ccc(Cl)cc1` the activity change, negative = cytotoxicity was -23.4% (inactive). With `COc1ccc(NC(=O)N(C)[C@H]2C[C@H]3c4[nH]c5ccccc5c4CCN3C(=O)[C@H]2CO)cc1` the activity change, negative = cytotoxicity was -20.7% (inactive). With `c1cncc(-c2ccc([C@@H]3[C@H]4CNC[C@@H]3N4CC3CCOCC3)cc2)c1` the activity change, negative = cytotoxicity was 61.9% (inactive). In the case of `C[C@H]1CN([C@@H](C)CO)C(=O)Cc2cc(NC(=O)CCCCCC(=O)Nc3ccccc3N)ccc2O[C@H]1CN(C)Cc1ccc(C(F)(F)F)cc1`, the activity change, negative = cytotoxicity is reported as -19% (inactive). In the case of `CCCNC(=O)N1[C@H](C#N)[C@H](c2ccc(C#Cc3ccc(F)cc3)cc2)[C@H]1CO`, the activity change, negative = cytotoxicity is reported as 14.3% (inactive). For `COc1ccc(C2=NNC(=Nc3cc(S(=O)(=O)N(C)C)ccc3C)SC2)c(OC)c1`, the activity change, negative = cytotoxicity was -17.5% (inactive). In the case of `CCN(CC)c1ccc(C2NC(=O)c3ccccc3N2)cc1` (stereo not drawn), the activity change, negative = cytotoxicity is reported as -18.3% (inactive). With `O=C(c1cccc(S(=O)(=O)NCc2ccccc2)c1)N1CCN(c2ccccc2)CC1` the activity change, negative = cytotoxicity was -21.2% (inactive). In the case of `COc1ccccc1NS(=O)(=O)c1cc(NC(=O)c2cc3ccccc3oc2=O)ccc1C`, the activity change, negative = cytotoxicity is reported as -6.46% (inactive). With `CC1(CCc2ccccc2)NC(=O)N(CC(=O)N2CC(=O)Nc3ccccc32)C1=O` (stereo not drawn) the activity change, negative = cytotoxicity was -7.05% (inactive). With `O=C(NC1CCCC1)C(c1ccccc1)n1c(CSCCOc2ccccc2)nc2ccccc21` (stereo not drawn) the activity change, negative = cytotoxicity was -14.3% (inactive). For `CN(C)c1ccc(/C=N/Nc2nc3ccccc3o2)cc1`, the activity change, negative = cytotoxicity was -21.5% (inactive). With `CC(Oc1cccc(Cl)c1)C(=O)NCCCCc1ccccc1` (stereo not drawn) the activity change, negative = cytotoxicity was -2.08% (inactive). For `O=C(NCc1cccnc1)C1Cc2c(-c3ccc(Cl)cc3)ccnc2O1` (stereo not drawn), the activity change, negative = cytotoxicity was -17.5% (inactive). In the case of `O=C1c2ccc3c4c(ccc(c24)C(=O)N1c1cccc(O)c1)C(=O)N(c1cccc(O)c1)C3=O`, the activity change, negative = cytotoxicity is reported as 7.85% (inactive). With `CCCN(C)C[C@H]1Oc2ncc(-c3ccccc3)cc2C(=O)N([C@@H](C)CO)C[C@H]1C` the activity change, negative = cytotoxicity was 2.32% (inactive). In the case of `C[C@H]1CN([C@@H](C)CO)C(=O)c2cccc(NC(=O)CCCCCC(=O)Nc3ccccc3N)c2O[C@@H]1CN(C)Cc1ccc2c(c1)OCO2`, the activity change, negative = cytotoxicity is reported as -20.1% (inactive). In the case of `Cc1ccsc1C(=O)OCC(=O)c1cc(C)n(C)c1C`, the activity change, negative = cytotoxicity is reported as -19.5% (inactive). In the case of `CCN1C/C(=C/c2ccc(OC)c(O)c2)C(=O)/C(=C/c2ccc(OC)c(O)c2)C1`, the activity change, negative = cytotoxicity is reported as -23.5% (inactive). For `O=C(Nc1cccc(S(=O)(=O)N2CCCC2)c1)c1ccc(Cl)nc1`, the activity change, negative = cytotoxicity was -35.5% (inactive).

Source: PubChem BioAssay AID720588 (Broad Institute, 2013)
